Target: Phosphatidylinositol 4,5-bisphosphate 3-kinase catalytic subunit alpha isoform (Homo sapiens, UniProt P42336)
Assay: Enzyme Assay
From the text: Inhibition of PI3 kinase by WmC20 derivatives causing a formation of covalent bond between WmC20 derivatives and the target protein.

Sequence of Phosphatidylinositol 4,5-bisphosphate 3-kinase catalytic subunit alpha isoform (P42336 whole entry, canonical isoform): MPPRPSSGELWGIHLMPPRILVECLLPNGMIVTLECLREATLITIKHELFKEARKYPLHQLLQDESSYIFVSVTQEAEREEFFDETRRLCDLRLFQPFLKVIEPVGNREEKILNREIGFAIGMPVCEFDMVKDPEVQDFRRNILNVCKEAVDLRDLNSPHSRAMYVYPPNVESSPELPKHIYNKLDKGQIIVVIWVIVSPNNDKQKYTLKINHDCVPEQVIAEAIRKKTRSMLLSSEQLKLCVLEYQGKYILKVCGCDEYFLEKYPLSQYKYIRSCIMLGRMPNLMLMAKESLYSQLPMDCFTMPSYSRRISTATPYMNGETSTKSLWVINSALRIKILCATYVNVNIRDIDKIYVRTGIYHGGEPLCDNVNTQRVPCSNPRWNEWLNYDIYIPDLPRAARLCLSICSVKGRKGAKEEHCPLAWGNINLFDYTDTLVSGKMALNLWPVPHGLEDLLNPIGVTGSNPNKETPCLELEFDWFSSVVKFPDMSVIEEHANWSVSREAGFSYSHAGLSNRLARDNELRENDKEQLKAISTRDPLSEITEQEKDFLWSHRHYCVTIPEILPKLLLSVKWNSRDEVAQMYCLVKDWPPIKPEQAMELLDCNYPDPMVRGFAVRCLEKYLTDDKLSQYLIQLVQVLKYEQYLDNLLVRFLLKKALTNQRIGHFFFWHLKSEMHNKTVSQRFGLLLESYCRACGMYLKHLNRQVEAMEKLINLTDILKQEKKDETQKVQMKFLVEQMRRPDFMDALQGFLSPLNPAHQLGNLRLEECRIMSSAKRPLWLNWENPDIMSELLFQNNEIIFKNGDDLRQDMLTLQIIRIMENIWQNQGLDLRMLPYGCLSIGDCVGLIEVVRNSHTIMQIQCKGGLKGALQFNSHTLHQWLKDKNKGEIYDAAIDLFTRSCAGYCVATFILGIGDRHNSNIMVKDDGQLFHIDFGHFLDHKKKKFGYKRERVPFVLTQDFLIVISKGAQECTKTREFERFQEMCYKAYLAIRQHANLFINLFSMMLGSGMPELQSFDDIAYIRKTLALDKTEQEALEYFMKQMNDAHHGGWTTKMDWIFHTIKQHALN

Compared with `COC[C@H]1OC(=O)C(=CNCCCCC(NC(C)=O)C(=O)O)C2C(=O)C(=O)C3=C([C@H](OC(C)=O)C[C@]4(C)C(=O)CC[C@@H]34)[C@]21C` (some centres undefined) [WmC20-lys, 2], `COC[C@H]1OC(=O)C(=CN(C)CCCCCC(=O)O)C2C(=O)C(=O)C3=C([C@H](OC(C)=O)C[C@]4(C)C(=O)CC[C@@H]34)[C@]21C` (some centres undefined) [WmC20-NMeHA, 4] is lower in IC50: over 1 µM for the first, 0.108 µM for the second. The second is the more potent here.

Going from `COC[C@H]1OC(=O)C(=CN2CCCC2C(=O)O)C2C(=O)C(=O)C3=C([C@H](OC(C)=O)C[C@]4(C)C(=O)CC[C@@H]34)[C@]21C` (some centres undefined) [WmC20-pro, 1] to `COC[C@H]1OC(=O)C(CSCC(NC(C)=O)C(=O)O)=C2C(=O)C(=O)C3=C([C@H](OC(C)=O)C[C@]4(C)C(=O)CCC34)[C@]21C` (some centres undefined) [WmC20-cys, 3], the IC50 rises from 0.068 µM to 1.14 µM (17-fold).
